# Test results published in EP4458916A1, “PHOTOCATALYTICALLY ACTIVE COATING COMPOSITION, METHOD FOR THE PRODUCTION THEREOF AND USE THEREOF” (priority 2023, dated 2024).
# Like-named read-outs stand apart in the source and are kept apart here.
# How the values were obtained:
# [1] = Immersion test: binding / wash-out of photocatalysts from SolGel coatings (1 h deionised water, UV-VIS signal loss); assay type: physicochemical; conditions: Rezeptur 5 coating on glass, dye 10 bis 40 mM; 1 h deionised water pH 6 ± 1, 22 ± 3 °C; relative UV-VIS signal loss at absorption maximum
# Protocol: Für alle Untersuchungen wurden nach Beispiel 8 beschichtete Glasträger verwendet.
# Um das Auswaschen der verschiedenen Farbstoffe in den Sol-Gel-Beschichtungen zu beurteilen wurde ein Immersionstest in vollentsalztem Wasser mit einem pH-Wert von (6 ± 1) und einer Wassertemperatur von (22 ± 3) °C für eine Stunde durchgeführt. Dazu wurden zunächst Schichten (Rezeptur 5, Beispiel 4, aufgefüllt mit 3,0 mL 2-Propanol; sh. Tabelle 3) mit erhöhter Farbstoffkonzentration (10 bis 40 mM; um die notwendige Auflösung bei der dünnen Schicht zu erreichen) auf Glas-Objektträgern erzeugt. Diese wurden nach dem Ablüften bei Raumtemperatur (30 min) eine Stunde bei 60°C nachgehärtet. Anschließend wurden die Schichten direkt im UV-VIS-Spektrometer vermessen. Die Ausgangswerte (Absorptionsmaximum des jeweiligen Farbstoffs) sollten dabei zwischen 0,05 A.U. und 1,50 A.U. liegen.
# Nach einer Stunde in VE-Wasser wurden die Prüfkörper getrocknet und erneut gemessen. Aus den beiden Messungen wurde ein relativer Signalverlust in Prozent bei dem farbstoffspezifischen Absorptionsmaximum bestimmt.
# Dieser Immersionstest diente dazu, das Auswaschverhalten verschiedener Farbstoffe aus Beschichtungssystemen zu beurteilen. Weiter soll er dabei helfen, verschiedene Farbstoffklassen oder verschiedene Farbstoffderivate einer Farbstoffklasse bezüglich dieser Charakteristik miteinander zu vergleichen. Die Ergebnisse sind in den folgenden Tabellen sortiert nach Stoffgruppen zusammengefasst: […]
# S.aureus = assay type: cell-based; conditions: for Log10 Reduktion Probe / Log10 Reduktion Dunkelkontrolle: label = Katalysator of the coating, Rezeptur 2 nach Beispiel 2c on Melamin with S-25a 2 mM
# Bakterien = experiment: Room light tests (Raumlichtversuche): antimicrobial efficacy at 10 µW/cm^2 for 24 h; assay type: cell-based; conditions: Farbstoff 5 mM, coating Rezeptur 3, Beispiel 2a (2,5 eq aqueous boric acid, 50 mM)
# Protocol: Um die antimikrobielle Wirksamkeit in einem realen Szenario abzuschätzen, wurden sogenannte Raumlichtversuche durchgeführt. Dazu wurden die mit Bakterien versetzten Probenträger mit einer, für Innenräume repräsentativen Lichtintensität von 10 µW/cm^2 für einen Zeitraum von 24 h bestrahlt.
# Herstellung der Beschichtung erfolgte gemäß Beispiel 2a (2,5 eq wässrige Borsäure, 50 mM), mit Rezeptur 3. Die Ergebnisse sind in der Tabelle 63 zusammengefasst. Tabelle 63: Antimikrobielle Wirksamkeit bei Raumlichtbedingungen
# S. enterica = experiment: Bacteria test following modified ISO 22196, photodynamic effect of different photocatalysts in the SolGel coating on S. enterica; assay type: cell-based; conditions: Rezeptur 4 nach Beispiel 5 on Melamin, 4 h
# Text: (§1) Die Bestimmung der antimikrobiellen Aktivität erfolgte nach einer modifizierten Version der ISO 22196:2011-08 ("Messung von antibakterieller Aktivität auf Kunststoff- und anderen porenfreien Oberflächen", Ausgabedatum: 2011-08).
# (§2) Bei der Testdurchführung wurde ein dünner Flüssigkeitsfilm, in dem die Bakterien enthalten sind (1,25 x 10^4 /cm2), direkt auf die Probekörper (2,5 cm x 2,5 cm) aufgebracht. Direkt nach Beimpfung wurden von der Nullprobe die Bakterien von den Probekörperoberflächen mittels Ultraschall und Vortexen abgelöst und die Keimzahl (KBE (engl. CFU), Kolonie-bildende Einheit) bestimmt (t0-Wert). Ein weiterer Satz Nullproben und antimikrobiell ausgestatteter Proben wurden mit Bakterien im Flüssigkeitsfilm bei Raumtemperatur inkubiert. Nach 4 h wurden überlebende Bakterien von den Probekörperoberflächen mittels Ultraschall und Vortexen abgelöst und die Keimzahl bestimmt (t4-Wert).
# (§3) Im Unterschied zu der in der ISO 22196:2011-08 beschriebenen Methode wurde das Inokulum nicht mit einer Folie abgedeckt und die Inkubationszeit von 24 auf 4 Stunden reduziert. Weiterhin wurden die Platten der Proben 3 und 4 mit Licht mit einer Intensität von 300 µW/cm2 belichtet.
# (§4) Der Bakterientest wurde in Anlehnung an ISO 22196 nach oben beschriebener Methode durchgeführt. Die Ergebnisse sind Tabelle 57a bis 57b dargestellt. Tabelle 57a: Photodynamische Wirkung verschiedener Katalysatoren in der SolGel Beschichtung gegen S.aureus
# I. monocytoqenes = experiment: Bacteria test following modified ISO 22196, photodynamic effect of different photocatalysts in the SolGel coating on I. monocytoqenes; assay type: cell-based; conditions: Rezeptur 4 nach Beispiel 5 on Melamin, 4 h
# Text: as §1, §2, §3, §4
molecule,measurement,setting,value
"2,7,12-Tris(pyridinio-p-tolyl)-17-(p-(methoxymethyl)phenyl) porphycen bromid [reference compound]",Verlust durch Auswaschen,[1],> 70%
CC(O)C(=O)[O][Al]([O]C(=O)C(C)O)[O]C(=O)C(C)O (centres unmarked) [AL],Log10 Reduktion Probe,"S.aureus; 4 h, 300 µW/cm2","3,3±0,4"
same,Log10 Reduktion Dunkelkontrolle,"S.aureus; 4 h, dark","0,2±0,7"
O=P(N1CCCC1)(N1CCCC1)N1CCCC1 [PO],Log10 Reduktion Probe,"S.aureus; 4 h, 300 µW/cm2","3,6±0,3"
same,Log10 Reduktion Dunkelkontrolle,"S.aureus; 4 h, dark","0,0±0,1"
NCCCOC1=CC(=O)c2cccc3cccc1c23 [S-08],Verlust durch Auswaschen,[1],13%
O=C1C(COc2ccc(O)cc2)=Cc2cccc3cccc1c23 [S-12],Verlust durch Auswaschen,[1],3%
O=C1C(COc2ccc(CO)cc2)=Cc2cccc3cccc1c23 [S-13],log reduction at 5000 µM,"Bakterien; 24 h, dark control, read-out: Log10 Reduktion Dunkelkontrolle",0.9
same,log reduction at 5000 µM,"Bakterien; illuminated 10 µW/cm^2 for 24 h, read-out: Log10 Reduktion 24 h",1.9
O=C1C(C[n+]2ccccc2)=Cc2cccc3cccc1c23 [S-24a],Verlust durch Auswaschen,[1],9%
same,"Photodynamische Wirkung gegen S.aureus (Log10 Reduktion), compared with the values of S-25a","S.aureus; Rezeptur 2, Beispiel 2a, filled up with IPA 1:2/1:5/1:8, dye content varied (Tabelle 56)",im Rahmen des Fehlers die gleichen Werte
same,S. enterica Log10 Reduktion Probe,S. enterica; 300 µW/cm2,"4,5±0,8"
same,S. enterica Log10 Reduktion Dunkelkontrolle,S. enterica; dark,"0,0±0,2"
same,I. monocytoqenes Log10 Reduktion Probe,I. monocytoqenes; 300 µW/cm2,"4,5±0,3"
same,I. monocytoqenes Log10 Reduktion Dunkelkontrolle,I. monocytoqenes; dark,"0,0±0,3"
CCCCCCCCCCOc1ccc(/C=C/C(=O)CC(=O)/C=C/c2ccc(OCCCCCCCCCC)cc2)cc1 [S-52a],Verlust durch Auswaschen,[1],13%
"COCCC1=Cc2nc1ccc1[nH]c(cc1CCOC)c1nc(c(O)cc3[nH]c2cc3CCOC)C(CCOC)=C1 [S-58a, 9-Hydroxy-2,7,12,17-tetra-(beta-methoxyethyl)porphycen]",Verlust durch Auswaschen,[1],4%
same,S. aureus Log10 Reduktion Probe,"S.aureus; Rezeptur 4 nach Beispiel 5 on Melamin, 4 h, 300 µW/cm2","1,4±0,1"
same,S. aureus Log10 Reduktion Dunkelkontrolle,"S.aureus; Rezeptur 4 nach Beispiel 5 on Melamin, 4 h, dark","0,0±0,1"
CC(=O)OCCC1=Cc2nc1ccc1[nH]c(cc1CCOC(C)=O)c1nc(c(O)cc3[nH]c2cc3CCOC(C)=O)C(CCOC(C)=O)=C1 [S-60a],Verlust durch Auswaschen,[1],8%
CC(=O)OCCC1=Cc2nc1ccc1[nH]c(cc1CCOC(C)=O)c1nc3c(cc4[nH]c2cc4CCOC(C)=O)OCCC3=C1 [S-60b],Verlust durch Auswaschen,[1],2%
COCCC1=Cc2nc1ccc1[nH]c(cc1CCOC)c1nc(c(OCCCO)cc3[nH]c2cc3CCOC)C(CCOC)=C1 [S-61a],Verlust durch Auswaschen,[1],6%
COCCC1=Cc2nc1ccc1[nH]c(cc1CCOC)c1nc(c(OCCCN)cc3[nH]c2cc3CCOC)C(CCOC)=C1 [S-62],Verlust durch Auswaschen,[1],3%
COCCC1=Cc2nc1ccc1[nH]c(cc1CCOC)c1nc(c(OCCCC(=O)O)cc3[nH]c2cc3CCOC)C(CCOC)=C1 [S-66a],Verlust durch Auswaschen,[1],3%
COCCC1=Cc2nc1ccc1[nH]c(cc1CCOC)c1nc(c(OCCC[Si](OC)(OC)OC)cc3[nH]c2cc3CCOC)C(CCOC)=C1 [S-68],Verlust durch Auswaschen,[1],9%
COCCC1=Cc2nc1c(O)cc1[nH]c(cc1CCOC)c1nc(c(NC(C)=O)cc3[nH]c2cc3CCOC)C(CCOC)=C1 [S-70],Verlust durch Auswaschen,[1],4%
COCCC1=Cc2nc1ccc1[nH]c(cc1CCOC)c1nc(c(OC(=O)CCC(N)C(=O)O)cc3[nH]c2cc3CCOC)C(CCOC)=C1 (centres unmarked) [S-74],Verlust durch Auswaschen,[1],11%
COCCC1=Cc2nc1ccc1[nH]c(cc1CCOC)c1nc(c(OCCCNC(=O)CCC(N)C(=O)O)cc3[nH]c2cc3CCOC)C(CCOC)=C1 (centres unmarked) [S-75],Verlust durch Auswaschen,[1],9%
OCCC1=Cc2nc1ccc1[nH]c(cc1CCO)c1nc(c(O)cc3[nH]c2cc3CCO)C(CCO)=C1 [Verbindungen S-59a],Verlust durch Auswaschen,[1],8%
